From patent US12616674B2, “Anti-fibrotic NEU3 inhibitor compounds and methods of use” (The Texas A&M University System, priority 2019, dated 2026)
“Also recorded” adds a separate entry of the source.

Key:
[1] = target: T1, recombinant human sialidase NEU3 (Homo sapiens, UniProt Q9UQ49); assay: NEU3-catalyzed L-TGF-β1 activation (TGF-β1 release/concentration assay, active TGF-β1 ELISA); assay type: biochemical; conditions: recombinant human NEU3, L-TGF-β1, PBS pH 6.9, 2 hours 37° C.; read-out: IC50, inhibits human NEU3 in the TGF-β1 concentration (release) assay
T1 construct: purchased Origene TP316537
T1 sequence (Q9UQ49 1-428): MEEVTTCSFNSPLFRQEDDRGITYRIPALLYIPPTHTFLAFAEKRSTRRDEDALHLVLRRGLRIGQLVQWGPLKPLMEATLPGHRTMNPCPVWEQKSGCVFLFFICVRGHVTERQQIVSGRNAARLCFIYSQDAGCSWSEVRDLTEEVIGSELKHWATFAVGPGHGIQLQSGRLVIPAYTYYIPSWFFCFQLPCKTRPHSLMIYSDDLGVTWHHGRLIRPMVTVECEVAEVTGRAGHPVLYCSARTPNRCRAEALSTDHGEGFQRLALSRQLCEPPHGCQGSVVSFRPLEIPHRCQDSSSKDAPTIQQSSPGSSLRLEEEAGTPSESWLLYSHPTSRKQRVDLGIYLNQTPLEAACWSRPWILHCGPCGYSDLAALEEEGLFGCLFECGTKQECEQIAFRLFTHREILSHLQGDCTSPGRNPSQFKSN
Method: To determine if NEU3 can cause latent transforming growth factor-β1 (L-TGF-β1) to release active TGF-β1, 200 ng/ml recombinant human L-TGF-β1 (299-LT/CF, R&D Systems) was incubated with varying concentrations of recombinant human NEU3 (TP316537, Origene) in a total volume of 100 μl of PBS pH 6.9 in a 96-well microplate (651261, Greiner Bio-one, Monroe, NC). The microplates were covered with aluminum foil and incubated at 37° C. for 2 hours. Following incubation, the reaction mixtures were assayed using a TGF-β1 ELISA kit (DY240, R&D Systems) following the manufacturer's protocol with the exception that the reaction mixtures were not processed for acid treatment, so as to measure only active TGF-β1 and not total TGF-β1. The absorbance was read with a SynergyMX plate reader (BioTek, Winooski, VT).
To determine the ability of compounds 1-31 to inhibit human recombinant NEU3 in-vitro, compounds were dissolved in 5 ml water to 20 mM in 15 ml tubes (89039-664, VWR, Radnor, PA), with the exception that 4-hydroxypyridine-2-carboxylic acid, nicotinic acid, and 4-aminopicolinic acid were dissolved in 50 μl DMSO to 2 M, and this was then added to 4.95 ml of water to make a 20 mM stock, and O-(tetrahydro-2H-pyran-2yl) hydroxylamine and salicylic acid were dissolved in 50 μl methanol to 2 M, and this was then added to 4.95 ml of water to make a 20 mM stock. All stocks were stored at 4° C. and used within 2 weeks of preparation. A 10-fold dilution series of the compounds starting at 2 mM were made in PBS pH 6.9 in 1.7 ml clear microtubes (22-281, Genesee Scientific). 100 μl of diluted compound was added to the well of a 96 well plate and then 50 μl of 400 ng/ml recombinant human sialidase NEU3 (TP316537, Origene) in PBS pH 6.9 was added to each well (50 μl PBS pH 6.9 for the control), and the plate was incubated for 30 minutes at 37° C. 50 μl of 800 ng/ml L-TGF-β1 (299-LT/CF, R&D Systems) in PBS pH 6.9 was then added to the well. The plate was covered with aluminum foil and incubated for 2 hours at 37° C., and released active TGF-β1 was assayed as described above.

[2] = test system: C57BL/6 mice on regular or high fat diet; assay: High fat diet C57BL/6 mice treated with intraperitoneal DANA; assay type: in vivo, mouse
Method: 12 week old male C57BL/6 mice (#000664; Jackson Laboratory, Farmington, CT) were fed standard rodent chow (15% kcal fat, Teklad 8604, Envigo, Madison WI) and 12-16 week old male C57BL/6 mice (#380050; Jackson) were fed a high fat diet (60% kcal fat, D12492 formula; Research Diets New Brunswick, NJ). Mice were placed on the specified diets for 6 weeks before the start of treatment. To determine if the sialidase inhibitor DANA (#252926-10MG, Millipore-Sigma, Burlington, MA) decreases high-fat diet induced weight gain, mice were treated every 48 hours with intraperitoneal injections of phosphate-buffered saline (PBS) or DANA at 10 mg/kg in PBS, formulated as 4 mg/ml in PBS. Mice were maintained on their specific diets and received injections every 48 hours for 5 weeks (35 days). Animals were housed with a 12-hour/12-hour light-dark cycle (lights on at 7 AM) with free access to food and water. All injections were performed between 9:00 and 11:00 AM. This protocol was done with specific approval of the Texas A&M University institutional animal care and use committee.
To determine the amount of steatosis (accumulation of fat in the cells of the liver), frozen sections were prepared by placing freshly isolated pieces of liver in Surgipath frozen section compound, freezing on dry ice, and storing at −80° C. 10-12 μm cryosections of liver were placed on glass slides and were stained with oil red O to detect the accumulation of lipids as described in Mehlem, A., et al., Imaging of neutral lipids by oil red O for analyzing the metabolic status in health and disease, Nat. Protoc., 2013. 8(6): p. 1149-54.
As in Example 9, mice were maintained on their specific diets and received injections of buffer or DANA every 48 hours for 5 weeks (35 days). Following euthanasia, liver tissue was removed, fixed, and then sectioned as described above.
This situation leads to elevated levels of glucose in the blood system, and following an increase in blood glucose (such as after a meal or an injection of glucose), the body takes longer than normal to reduce blood glucose levels. To determine if DANA could reduce blood glucose levels, on day 33 of the experiment described in […], mice were fasted for 16 hours starting at 5 PM. On day 34, mice received an IP injection of 1.5 g/kg glucose (Amresco, Solon, OH) formulated as 525 mg/ml in PBS. Blood glucose levels were measured before glucose administration (0 minutes), and at 20, 40, 60, 90, and 120 minutes after the injection using commercial blood glucose test strips (CVS Pharmacy, Woonsocket, RI).
Obesity is associated with increased size (weight) of many organs, including white fat and liver. To determine if the sialidase inhibitor DANA could prevent a high fat diet-induced increase in organ weights, at day 35 of the experiment described in Example 9, following euthanasia, organs including epididymal white adipose and inter-scapular brown adipose tissue, liver, spleen, lungs, and kidneys were weighed.

[3] = test system: NEU3 enzymic activity, hepatic steatosis and weight gain in mice; conditions: oral administration; cited from earlier work
[4] = HFD mice, DANA vs control HFD, day 35, FIG. 19

Structure (SMILES): CC(=O)N[C@@H]1C(O)C=C(C(=O)O)O[C@H]1[C@H](O)[C@H](O)CO (stereo partly shown) [Compound 1, DANA]
- IC50 [1]: 250 µM
- oil red O staining in the liver (neutral lipid accumulation) ([2]; HFD mice, DANA 10 mg/kg i.p. every 48 hours for 35 days, vs saline, FIG. 14): significant reduction
- F4/80 positive cells in the liver ([2]; HFD mice, DANA i.p. every 48 hours for 35 days, vs saline, FIG. 15): significant reduction
- high fat diet induced weight gain ([2]; HFD mice, DANA i.p. injections vs PBS, after 21 days of treatment, FIG. 16): prevents weight gain; also recorded: significant reduction in weight gain
- total glucose levels (AUC over 120 minutes) ([2]; HFD mice, DANA vs HFD control, FIG. 18): significantly lower
- blood glucose levels after glucose injection ([2]; HFD mice, DANA vs control HFD, at 60 minutes after 1.5 g/kg IP glucose, FIG. 17): significantly lower
- brown fat weight (percent of body weight) [2, 4]: significantly lower
- white fat weight (percent of body weight) [2, 4]: significantly lower
- weight of mice on regular chow ([2]; regular chow mice, DANA vs PBS injections): no effect; also recorded: no significant differences in weight
- organ weights ([2]; regular chow mice, DANA vs PBS, day 35, FIG. 19): no significant differences in any organ weights
- oil red O staining in the liver ([2]; regular diet mice, DANA 10 mg/kg i.p. every 48 hours for 35 days, vs saline): no significant difference
- F4/80 staining in the liver ([2]; regular diet mice, DANA i.p. every 48 hours for 35 days, vs saline): no significant difference
- fasting glucose levels or glucose levels after the glucose injection ([2]; standard chow mice, DANA vs PBS, FIG. 17): no significant differences
- HFD-induced weight gain [3]: attenuated
- NEU3 enzymic activity in the small intestine [3]: inhibited
- hepatic steatosis [3]: attenuated
